Holding throughout (type): biochemical
One test addresses JAK1 (Homo sapiens (Human), UniProt P23458). Description: JAK/TYK2 Assay (Kinase Glo luminescence), JAK1. Particulars: 7.5 nM enzyme, 2 uM ATP, 30 uM IRS-1, 1 hr. On the procedure: (§1) 10 mM test compound stock or 1 mM control compound stock (tofocitinib, ruxolitinib or staurosporine) in DMSO was diluted to 0.4 mM in DMSO. A 3-fold series dilution was then performed in DMSO to generate 10 different compound concentrations. The assay was carried out in 384-well white plate. 0.5 uL of 40× compound DMSO solution at different concentrations was mixed with 10 uL 2× enzyme prepared in reaction buffer (20 mM HEPES, 10 mM MgCl2, 0.01% Tween, 1 mM DTT, pH 7.5). 10 uL 2× substrate mixture prepared in reaction buffer was then added to start the reaction. A short spin was done to settle down all solutions to the bottom of the plate. Final concentrations of test compound in the reaction mixture were 10000, 3333, 1111, 370, 123, 41.2, 13.7, 4.57, 1.52 and 0.51 nM. Concentrations of control compound were ten times less. Enzymatic reaction was conducted at 25° C. for 1-2 hours. 10 uL of Kinase Glo Reagents was added to stop the reaction and generate the luminescent signal which was measured using Envision. Luminescence signal was inversely related to kinase activity. […] The mixture without any compound was the positive control.
For orientation: Kinase-Glo reads ATP consumption through a luciferase reaction.

The next test deals with TYK2 (Homo sapiens (Human), UniProt P29597). Nature of the test: JAK/TYK2 Assay (Kinase Glo luminescence), TYK2. The following applies: 9 nM enzyme, 2 uM ATP, 30 uM IRS-1, 1 hr. On the procedure:
as §1

The target of the next test is JAK2 (Homo sapiens (Human), UniProt O60674). Description: JAK/TYK2 Assay (Kinase Glo luminescence), JAK2. The following applies: 0.8 nM enzyme, 2 uM ATP, 4 uM pEY, 1 hr. The method, then: as §1
Chain of JAK2 (O60674 whole entry, species assumed): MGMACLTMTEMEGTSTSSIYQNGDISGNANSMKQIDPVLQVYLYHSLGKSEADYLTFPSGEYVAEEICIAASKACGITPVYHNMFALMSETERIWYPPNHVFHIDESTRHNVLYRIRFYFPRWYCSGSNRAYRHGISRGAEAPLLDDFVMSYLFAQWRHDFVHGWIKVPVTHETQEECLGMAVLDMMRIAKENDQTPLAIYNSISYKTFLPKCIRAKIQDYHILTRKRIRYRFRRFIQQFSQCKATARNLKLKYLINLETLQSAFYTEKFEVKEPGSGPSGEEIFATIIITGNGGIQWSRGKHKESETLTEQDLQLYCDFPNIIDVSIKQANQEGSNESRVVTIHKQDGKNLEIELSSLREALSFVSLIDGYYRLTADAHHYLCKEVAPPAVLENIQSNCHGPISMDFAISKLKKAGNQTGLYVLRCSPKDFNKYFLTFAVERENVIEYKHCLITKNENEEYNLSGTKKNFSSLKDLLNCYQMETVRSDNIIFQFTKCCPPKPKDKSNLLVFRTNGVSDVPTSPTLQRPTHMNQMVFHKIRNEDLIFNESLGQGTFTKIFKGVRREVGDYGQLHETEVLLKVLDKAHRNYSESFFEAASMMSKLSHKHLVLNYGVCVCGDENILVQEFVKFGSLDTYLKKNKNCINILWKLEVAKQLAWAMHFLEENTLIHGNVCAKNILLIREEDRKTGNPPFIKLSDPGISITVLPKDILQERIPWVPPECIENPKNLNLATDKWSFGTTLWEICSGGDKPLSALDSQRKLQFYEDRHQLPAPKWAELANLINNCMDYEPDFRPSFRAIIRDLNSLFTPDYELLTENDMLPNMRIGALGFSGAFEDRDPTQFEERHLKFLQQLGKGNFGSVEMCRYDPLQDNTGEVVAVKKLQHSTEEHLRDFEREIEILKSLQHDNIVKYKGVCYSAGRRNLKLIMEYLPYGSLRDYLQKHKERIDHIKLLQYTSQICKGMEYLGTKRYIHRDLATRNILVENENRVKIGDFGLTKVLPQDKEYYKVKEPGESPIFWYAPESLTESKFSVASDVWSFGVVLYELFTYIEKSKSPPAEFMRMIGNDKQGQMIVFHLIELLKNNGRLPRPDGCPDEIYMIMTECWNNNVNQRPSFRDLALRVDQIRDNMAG
A further test has as its target JAK3 (Homo sapiens (Human), UniProt P52333). Description: JAK/TYK2 Assay (Kinase Glo luminescence), JAK3. The following applies: 1.5 nM enzyme, 2 uM ATP, 4 uM pEY, 1 hr. On the procedure: as §1

As a reminder, the IC50 is the concentration at which inhibition is half-maximal. High values mean lower potency, low ones higher potency.

Chain of JAK3 (P52333 whole entry, species assumed): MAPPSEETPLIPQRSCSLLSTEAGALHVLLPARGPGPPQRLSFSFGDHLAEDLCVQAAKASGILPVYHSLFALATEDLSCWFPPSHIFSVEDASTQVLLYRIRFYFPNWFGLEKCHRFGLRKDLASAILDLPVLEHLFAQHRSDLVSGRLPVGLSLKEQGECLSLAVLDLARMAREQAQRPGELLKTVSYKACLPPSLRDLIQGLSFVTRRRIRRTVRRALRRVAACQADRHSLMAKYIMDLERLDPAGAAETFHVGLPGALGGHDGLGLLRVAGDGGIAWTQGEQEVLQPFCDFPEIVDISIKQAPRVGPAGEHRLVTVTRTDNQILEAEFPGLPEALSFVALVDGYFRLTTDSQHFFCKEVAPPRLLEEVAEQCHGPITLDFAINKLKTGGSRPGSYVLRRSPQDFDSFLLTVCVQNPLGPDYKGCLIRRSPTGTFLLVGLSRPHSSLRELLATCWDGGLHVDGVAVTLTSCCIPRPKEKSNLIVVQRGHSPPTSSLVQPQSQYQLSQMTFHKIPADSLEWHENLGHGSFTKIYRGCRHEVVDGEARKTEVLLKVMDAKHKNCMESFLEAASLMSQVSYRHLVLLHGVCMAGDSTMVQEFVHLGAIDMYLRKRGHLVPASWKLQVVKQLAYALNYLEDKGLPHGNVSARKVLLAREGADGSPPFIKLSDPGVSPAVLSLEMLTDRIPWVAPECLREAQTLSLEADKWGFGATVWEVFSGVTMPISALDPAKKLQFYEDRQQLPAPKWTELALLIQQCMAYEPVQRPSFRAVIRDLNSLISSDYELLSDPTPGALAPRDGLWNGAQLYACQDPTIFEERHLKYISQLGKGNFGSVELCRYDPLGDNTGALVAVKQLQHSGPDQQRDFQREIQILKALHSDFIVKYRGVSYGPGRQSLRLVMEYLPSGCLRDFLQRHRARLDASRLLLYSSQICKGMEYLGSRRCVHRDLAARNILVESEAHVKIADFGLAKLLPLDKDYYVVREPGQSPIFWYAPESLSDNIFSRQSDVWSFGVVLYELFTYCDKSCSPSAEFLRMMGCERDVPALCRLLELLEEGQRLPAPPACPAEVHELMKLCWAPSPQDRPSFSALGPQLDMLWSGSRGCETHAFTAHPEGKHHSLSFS
Chain of JAK1 (P23458 whole entry, species assumed): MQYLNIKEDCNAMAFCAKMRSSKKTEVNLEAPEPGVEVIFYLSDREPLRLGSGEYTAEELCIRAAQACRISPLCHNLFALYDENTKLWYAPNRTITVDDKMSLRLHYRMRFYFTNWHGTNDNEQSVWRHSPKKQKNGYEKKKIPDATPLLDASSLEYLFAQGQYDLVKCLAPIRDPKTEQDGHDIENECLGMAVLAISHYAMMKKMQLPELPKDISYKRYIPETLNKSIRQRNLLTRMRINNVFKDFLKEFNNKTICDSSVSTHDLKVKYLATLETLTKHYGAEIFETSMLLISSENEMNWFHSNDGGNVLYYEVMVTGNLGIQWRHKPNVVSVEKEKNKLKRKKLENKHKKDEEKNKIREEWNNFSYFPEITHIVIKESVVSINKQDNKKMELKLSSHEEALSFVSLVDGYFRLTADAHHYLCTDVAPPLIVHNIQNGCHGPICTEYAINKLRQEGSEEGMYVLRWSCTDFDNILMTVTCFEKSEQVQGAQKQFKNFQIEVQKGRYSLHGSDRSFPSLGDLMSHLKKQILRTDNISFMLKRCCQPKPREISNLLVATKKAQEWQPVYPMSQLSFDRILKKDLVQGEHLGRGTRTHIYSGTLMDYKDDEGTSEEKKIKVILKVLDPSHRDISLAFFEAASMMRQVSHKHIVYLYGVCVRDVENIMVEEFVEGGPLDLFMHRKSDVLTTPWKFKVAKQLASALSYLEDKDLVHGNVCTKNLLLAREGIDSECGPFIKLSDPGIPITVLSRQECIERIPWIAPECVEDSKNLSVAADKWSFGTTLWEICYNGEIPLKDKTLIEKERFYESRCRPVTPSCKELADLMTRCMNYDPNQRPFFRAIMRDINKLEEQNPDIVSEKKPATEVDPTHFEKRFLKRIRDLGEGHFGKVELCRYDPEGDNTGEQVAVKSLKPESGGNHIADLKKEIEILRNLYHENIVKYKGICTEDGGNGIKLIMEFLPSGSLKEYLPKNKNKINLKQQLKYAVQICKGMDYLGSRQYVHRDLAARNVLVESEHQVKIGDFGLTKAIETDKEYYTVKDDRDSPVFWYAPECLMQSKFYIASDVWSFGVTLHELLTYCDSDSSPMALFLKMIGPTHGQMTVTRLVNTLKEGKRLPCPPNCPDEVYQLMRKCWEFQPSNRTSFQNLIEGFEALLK
Chain of TYK2 (P29597 whole entry, species assumed): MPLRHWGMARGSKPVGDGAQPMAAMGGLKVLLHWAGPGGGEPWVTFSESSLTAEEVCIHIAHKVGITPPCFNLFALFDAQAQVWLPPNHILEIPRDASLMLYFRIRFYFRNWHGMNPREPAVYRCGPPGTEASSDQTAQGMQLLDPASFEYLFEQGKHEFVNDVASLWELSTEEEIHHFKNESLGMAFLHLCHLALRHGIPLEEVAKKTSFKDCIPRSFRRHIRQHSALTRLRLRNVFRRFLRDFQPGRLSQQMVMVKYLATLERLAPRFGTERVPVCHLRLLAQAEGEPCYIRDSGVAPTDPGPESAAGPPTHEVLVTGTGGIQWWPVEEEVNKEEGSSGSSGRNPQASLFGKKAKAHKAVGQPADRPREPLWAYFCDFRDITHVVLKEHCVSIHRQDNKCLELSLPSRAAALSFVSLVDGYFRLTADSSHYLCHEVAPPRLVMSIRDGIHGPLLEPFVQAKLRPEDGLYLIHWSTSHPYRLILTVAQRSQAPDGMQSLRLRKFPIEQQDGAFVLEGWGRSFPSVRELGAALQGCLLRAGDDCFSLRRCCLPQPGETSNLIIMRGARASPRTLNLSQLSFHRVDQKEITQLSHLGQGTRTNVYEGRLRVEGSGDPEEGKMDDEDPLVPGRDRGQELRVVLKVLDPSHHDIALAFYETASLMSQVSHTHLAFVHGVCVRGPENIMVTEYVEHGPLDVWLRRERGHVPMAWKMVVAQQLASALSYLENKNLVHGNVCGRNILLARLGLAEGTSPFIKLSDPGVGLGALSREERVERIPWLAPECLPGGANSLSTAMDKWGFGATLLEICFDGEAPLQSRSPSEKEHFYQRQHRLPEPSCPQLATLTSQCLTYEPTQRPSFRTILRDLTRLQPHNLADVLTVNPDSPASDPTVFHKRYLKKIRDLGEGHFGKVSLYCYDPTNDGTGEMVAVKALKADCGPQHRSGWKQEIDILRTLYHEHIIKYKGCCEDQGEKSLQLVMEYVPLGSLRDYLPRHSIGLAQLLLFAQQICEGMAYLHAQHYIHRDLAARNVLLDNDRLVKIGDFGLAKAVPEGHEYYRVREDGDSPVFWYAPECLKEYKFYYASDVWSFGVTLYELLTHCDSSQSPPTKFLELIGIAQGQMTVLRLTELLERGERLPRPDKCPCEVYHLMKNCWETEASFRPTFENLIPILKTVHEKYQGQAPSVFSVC

As for `CC[C@H](Cn1ccc2cnc(Nc3cnn(CC(=O)O[C@@H]4C[C@@H](C(=O)OC)N(C)C4)c3)nc21)C(C)C` [Compound 131, methyl (2S,4R)-4-(2-(4-((7-((S)-2-ethyl-3-methylbutyl)-7H-pyrrolo[2,3-d]pyrimidin-2-yl)amino)-1H-pyrazol-1-yl)acetoxy)-1-methylpyrrolidine-2-carboxylate], the IC50 on JAK1, on TYK2, against JAK2 and against JAK3 was under 100 nM in each case.

On to `CCOC(=O)[C@@H]1C[C@@H](OC(=O)Cn2cc(Nc3ncc4ccn(C[C@@H](CC)C(C)C)c4n3)cn2)CN1C` [Compound 133, ethyl (2S,4R)-4-(2-(4-((7-((S)-2-ethyl-3-methylbutyl)-7H-pyrrolo[2,3-d]pyrimidin-2-yl)amino)-1H-pyrazol-1-yl)acetoxy)-1-methylpyrrolidine-2-carboxylate], for which the IC50 on JAK1, at TYK2, against JAK2 and at JAK3 was under 100 nM in each case.

Consider `CC[C@H](Cn1ccc2cnc(Nc3cnn(CC(=O)O[C@@H]4C[C@@H](C(=O)OC(C)C)N(C)C4)c3)nc21)C(C)C` [Compound 134, isopropyl (2S,4R)-4-(2-(4-((7-((S)-2-ethyl-3-methylbutyl)-7H-pyrrolo[2,3-d]pyrimidin-2-yl)amino)-1H-pyrazol-1-yl)acetoxy)-1-methylpyrrolidine-2-carboxylate], for which the IC50 is under 100 nM against JAK1, 100 to 1000 nM on TYK2, 100 to 1000 nM against JAK2 and 100 to 1000 nM against JAK3.

Turning to `CC[C@H](Cn1ccc2cnc(Nc3cnn(CC(=O)O[C@@H]4C[C@@H](C(=O)O)N(C)C4)c3)nc21)C(C)C` [Compound 135, (2S,4R)-4-(2-(4-((7-((S)-2-ethyl-3-methylbutyl)-7H-pyrrolo[2,3-d]pyrimidin-2-yl)amino)-1H-pyrazol-1-yl)acetoxy)-1-methylpyrrolidine-2-carboxylic acid], the IC50 at JAK1, against TYK2 and at JAK2 was 100 to 1000 nM each time.

The values are drawn from US11459333B2, “Substituted pyrrolo[2,3-d]pyrimidines as JAK inhibitors” (Vimalan Biosciences, Inc., priority 2019, dated 2022).
